Reference: US20230293438A1, “INJECTABLE DRUG-RELEASING MICROPOROUS ANNEALED PARTICLE SCAFFOLDS FOR TREATING MYOCARDIAL INFARCTION” (THE REGENTS OF THE UNIVERSITY OF CALIFORNIA, priority 2020, published 2023)

What was measured:
[1] = test system: neonatal rat cardiomyocytes; assay: Cardiomyocyte viability (live/dead assay); format: cell-based; details: 120 h, after 5 days in vitro culture, drugs in medium (20 µM), control cells 25 %
Experimental: (§1) Cell isolation: Primary neonatal rat cardiomyocytes and fibroblasts were isolated from the hearts of 1-2 day old Sprague-Dawley rat pups as described previously with minor modifications. Briefly, the cardiac tissue was minced and digested with 80 units/mL collagenase II (Worthington) and 0.8 mg/mL pancreatin (Sigma) at 37° C. in a water bath. Neonatal calf serum (NCS) was applied to inactivate enzymatic activity in the digested cell mixture. The cell solution was filtered through 100 µm mesh and centrifuged at 2200 rpm for 3 minutes. The cell pellets were suspended in 1 mL NCS and further separated by Percoll density gradient centrifugation. […]
Cell culture and evaluation of drug effects in vitro: The drug effects on cardiomyocyte viability and proliferation were evaluated. Isolated cardiomyocytes were calculated and seeded on 0.1% gelatin-coated twenty-four well tissue culture plate with a density of 20, 000 cells/cm^2, and cultured at 37° C. in a humidified, 5% CO2 incubator overnight in DMEM/Medium 199 (4/1) containing 10% FBS, 1% NEAAs and 1% P/S. The next day, the culture medium was replaced by fresh medium containing 20 µM F, R or their combination. […] A live/dead kit (Invitrogen) was for cell viability assay, and images were taken using inverted microscope fluorescence microscopy (Zeiss Axio Observer Z1) to determine the cell numbers and the percentage of dead cells. […]

[2] = test system: Human umbilical vein endothelial cells (HUVECs); assay: Endothelial cell proliferation (MTS assay); format: cell-based
Experimental: The drug effects on EC proliferation and network formation were evaluated. Human umbilical vein endothelial cells (HUVECs) were seeded on 0.1% gelatin-coated 24-well plates with a density of 5, 000 cells/cm^2 and cultured overnight in DMEM containing 10% FBS and 1% P/S. On the next day, the culture medium was replaced by the fresh medium containing F and R at the determined concentrations and combinations, and the medium was changed every other day. MTS cell proliferation assay was performed on day 1, 3 and 5. In addition, the ECs network formation was examined on growth factor reduced Matrigel according to the manufacturer's instructions (cat# CB-40230C, Thermo Fisher Scientific). Briefly, 24-well plates were coated with Matrigel. ECs were digested and plated onto a layer of Matrigel at a density of 3×10^5 cells/well in M199 medium containing 1% FBS and […], with the addition of F and R. Vascular endothelial growth factor (VEGF, 20 ng/mL) was used as a positive control. After 16 hours of culture, cells were stained with calcein acetoxymethyl ester (calcein-AM) and observed with an inverted fluorescent microscope. The number of tubular structures, junctions and meshes were analyzed by Image J with the Angiogenesis Analyzer plugin (n = 4-6 per group).

neonatal cardiomyocytes = assay: Cardiomyocyte proliferation (EdU assay); format: cell-based, rat; details: drugs in medium
Experimental: Cell isolation: Primary neonatal rat cardiomyocytes and fibroblasts were isolated from the hearts of 1-2 day old Sprague-Dawley rat pups as described previously with minor modifications. Briefly, the cardiac tissue was minced and digested with 80 units/mL collagenase II (Worthington) and 0.8 mg/mL pancreatin (Sigma) at 37° C. in a water bath. Neonatal calf serum (NCS) was applied to inactivate enzymatic activity in the digested cell mixture. The cell solution was filtered through 100 µm mesh and centrifuged at 2200 rpm for 3 minutes. The cell pellets were suspended in 1 mL NCS and further separated by Percoll density gradient centrifugation. […] Cell culture and evaluation of drug effects in vitro: The drug effects on cardiomyocyte viability and proliferation were evaluated. Isolated cardiomyocytes were calculated and seeded on 0.1% gelatin-coated twenty-four well tissue culture plate with a density of 20, 000 cells/cm^2, and cultured at 37° C. in a humidified, 5% CO2 incubator overnight in DMEM/Medium 199 (4/1) containing 10% FBS, 1% NEAAs and 1% P/S. […] A live/dead kit (Invitrogen) was for cell viability assay, and images were taken using inverted microscope fluorescence microscopy (Zeiss Axio Observer Z1) to determine the cell numbers and the percentage of dead cells. […]

cardiac fibroblasts = assay: Cardiac fibroblast proliferation (MTS assay); format: cell-based, rat; details: drugs in medium
Experimental: Cell isolation: Primary neonatal rat cardiomyocytes and fibroblasts were isolated from the hearts of 1-2 day old Sprague-Dawley rat pups as described previously with minor modifications. Briefly, the cardiac tissue was minced and digested with 80 units/mL collagenase II (Worthington) and 0.8 mg/mL pancreatin (Sigma) at 37° C. in a water bath. Neonatal calf serum (NCS) was applied to inactivate enzymatic activity in the digested cell mixture. The cell solution was filtered through 100 µm mesh and centrifuged at 2200 rpm for 3 minutes. The cell pellets were suspended in 1 mL NCS and further separated by Percoll density gradient centrifugation. A two-layer density gradient was formed consisting of 40.5% Percoll (GE17-0891-01, Sigma) solution in the top layer and 58.5% Percoll solution in the bottom layer. The cell suspension was layered on top of the gradient and centrifuged at 3000 rpm at room temperature for 30 minutes. […] The drug effects on cardiac fibroblast proliferation and myo-differentiation were evaluated. Fibroblasts were seeded on twenty-four well tissue culture plate with a density of 5000 cells/cm^2 and cultured overnight in DMEM containing 10% FBS and 1% P/S. On the next day, the culture medium was replaced by the fresh medium containing F and R at the determined concentrations and combinations, and the medium was changed every other day. […]

[3] = test system: neonatal cardiac fibroblasts; assay: Cardiac fibroblast myo-differentiation (α-SMA / F-actin staining); format: cell-based, rat; details: drugs in medium, day 5
Experimental: as §1, with “centrifugation. A two-layer density gradient was formed consisting of 40.5% Percoll (GE17-0891-01, Sigma) solution in the top layer and 58.5% Percoll solution in the bottom layer.” for “centrifugation.”
The drug effects on cardiac fibroblast proliferation and myo-differentiation were evaluated. Fibroblasts were seeded on twenty-four well tissue culture plate with a density of 5000 cells/cm^2 and cultured overnight in DMEM containing 10% FBS and 1% P/S. On the next day, the culture medium was replaced by the fresh medium containing F and R at the determined concentrations and combinations, and the medium was changed every other day. […]
(§2) The effects of drugs released from FR/NPs and FR/NPs-µGel particles 12 were evaluated using the methods mentioned above. […]

[4] = test system: Human umbilical vein endothelial cells (HUVECs); assay: Endothelial cell tubule network formation on Matrigel; format: cell-based; details: drugs in medium, 16 hours
Experimental: The drug effects on EC proliferation and network formation were evaluated. Human umbilical vein endothelial cells (HUVECs) were seeded on 0.1% gelatin-coated 24-well plates with a density of 5, 000 cells/cm^2 and cultured overnight in DMEM containing 10% FBS and 1% P/S. On the next day, the culture medium was replaced by the fresh medium containing F and R at the determined concentrations and combinations, and the medium was changed every other day. MTS cell proliferation assay was performed on day 1, 3 and 5. In addition, the ECs network formation was examined on growth factor reduced Matrigel according to the manufacturer’s instructions (cat# CB-40230C, Thermo Fisher Scientific). Briefly, 24-well plates were coated with Matrigel. ECs were digested and plated onto a layer of Matrigel at a density of 3×10^5 cells/well in M199 medium containing 1% FBS and 1% P/S, with the addition of F and R. Vascular endothelial growth factor (VEGF, 20 ng/mL) was used as a positive control. After 16 hours of culture, cells were stained with calcein acetoxymethyl ester (calcein-AM) and observed with an inverted fluorescent microscope. The number of tubular structures, junctions and meshes were analyzed by Image J with the Angiogenesis Analyzer plugin (n = 4-6 per group).
as §2

SMILES	viability at 20 µM [1] [%]	optimal concentration to enhance EC proliferation [2] [µM]	proliferation of neonatal cardiomyocytes, times as many cells as the control (neonatal cardiomyocytes)	fibroblast proliferation (cardiac fibroblasts)	myo-differentiation of cardiac fibroblasts [3]	EC proliferation ([2]; drugs in medium)	EC network formation [4]
C=C[C@@]1(C)CC(=O)[C@]2(O)[C@@]3(C)[C@@H](O)CCC(C)(C)[C@@H]3[C@H](O)[C@H](OC(C)=O)[C@@]2(C)O1 [F, Forskolin]	80	20	–	–	–	–	–
Cc1cccc(-c2n[nH]cc2-c2ccc3ncccc3n2)n1 [R, 2-(3-(6-Methylpyridine-2-yl)-1H-pyrazol-4-yl)-1,5-naphthyridine]	80	20	six	opposite inhibitory effects	could prevent myo-differentiation of cardiac fibroblasts	dose-dependent effects to enhance EC proliferation	not with R alone
